According to patent US20120232003A1, “COMPOSITIONS AND METHODS FOR DIABETES TREATMENT” (priority 2009, published 2012):

How the values were obtained:
male C57BL6 DIO mice = assay: Oral glucose tolerance test, blood glucose levels (Example 2); type: in vivo
Protocol: In this experiment, male C57BL6 DIO mice (10-11 weeks old, n=52) were used and maintained on a high fat diet. A total of 49 animals were used in this study. […] The mice were randomized to achieve similar body weight and glucose for each group before dosing. All animals were subjected to fasting at the start of the dark period (Groups 1-7). Food was removed, and bedding materials were replaced with fresh bedding to eliminate any residual food. Animals remained under fast until the 120 minute time point was taken. Water was made available ad libitum throughout the study. A 30 mg/mL stock solution of melatonin (30 mg melatonin in 1 ml of pure sesame oil) was made. From this stock solution, 10 μL of stock was taken and diluted with 990 μL of sesame oil, resulting in a solution concentration of 300 μg/ml. This was then diluted 1:18, resulting in a final concentration of 16.6-16.7 μg/mL. The doses of melatonin were adjusted based on the weight of the mouse. […] Blood glucose levels were measured by standard methods. […] Blood glucose level of all animals in Groups 1-7 were measured at time 0 (right before the glucose dosing), 15, 30, 60 and 120 minutes post glucose dosing (5 time points). Body weight was recorded twice per week prior to the study, and before the blood glucose level measurements. […]

male lean C57BL6 mice [1] = assay: Insulin levels post glucose dosing by ELISA (Example 1); type: in vivo; details: 5 μg/mouse, oral glucose 3 g/kg
Protocol: (§1) In this experiment, male lean C57BL6 mice were used. […] The mice were randomized to achieve similar body weight and glucose for each group before dosing. All animals were subjected to fasting at the start of the dark period (Group 1-4). Food was removed, and bedding materials were replaced with fresh bedding to eliminate any residual food. Animals remained under fast until the 120 minute time point was taken. Water was made available ad libitum throughout the study. A 30 mg/mL stock solution of melatonin (30 mg melatonin in 1 ml of pure sesame oil) was made. From this stock solution, 10 μL of stock was taken and diluted with 990 μL of sesame oil, resulting in a solution concentration of 300 μg/ml. This was then diluted 1:18, resulting in a final concentration of 16.6-16.7 μg/mL. Mice received 0.3 ml by subcutaneous injection (5 μg/mouse). […] Insulin and blood glucose levels were measured by standard methods. The oral glucose tolerance test was carried out as follows using a glucose oxidase reaction measured by a Precision glucometer. […] Blood glucose level of all animals in Group 1-4 were measured at time 0 (right before the glucose dosing), 5, 10, 20, 30, 60 and 120 minutes post glucose dosing (7 time points). Insulin levels were also measured at 0, 30, 60, and 120 minutes from separate collections of tail vein blood obtained post glucose dosing by Crystal Chemistry ELISA.

male lean C57BL6 mice [2] = assay: Oral glucose tolerance test, blood glucose levels (Example 1); type: in vivo; details: 5 μg/mouse, oral glucose 3 g/kg
Protocol: as §1

rat model of diabetes = details: cited from earlier work
[3] = test system: rat insulinoma cells (INS1); details: cited from earlier work
[4] = test system: mouse C2C12 skeletal muscle cells; details: cited from earlier work
[5] = cells exposed to melatonin and GLP-1 at the same time
[6] = overnight pretreatment with melatonin

| SMILES | blood glucose levels (male C57BL6 DIO mice; sitagliptin 10 mg/kg alone, PO -1 h, FIG. 2B) | insulin levels (male lean C57BL6 mice [1]; 1-hour melatonin dose, SC -1 h, FIG. 1D) | insulin levels compared to vehicle alone (male lean C57BL6 mice [1]; 12-hour melatonin dose, SC -12 h, FIG. 1B) | glucose levels compared to vehicle alone (male lean C57BL6 mice [2]; 1-hour melatonin dose, SC -1 h, FIG. 1C) | blood glucose levels compared to vehicle alone (male lean C57BL6 mice [2]; 12-hour sustained melatonin dose, SC -12 h, FIG. 1A) | blood glucose levels (rat model of diabetes) | protection against hyperglycemia-induced oxidative damage (rat model of diabetes) | effect on the anti-diabetic action of sitagliptin (male C57BL6 DIO mice; 12-hour melatonin dose SC with sitagliptin 10 mg/kg PO) | GLP-1 induced gene expression [3, 5] | GLP-1 induced insulin secretion [3, 5] | cAMP-response element-mediated gene expression in response to GLP-1 or forskolin [3, 6] | insulin secretion in response to GLP-1 or forskolin [3, 6] | insulin-promoter-driven luciferase gene expression in response to GLP-1 or forskolin [3, 6] | glucose transport [4] |
| --- | --- | --- | --- | --- | --- | --- | --- | --- | --- | --- | --- | --- | --- | --- |
| N[C@@H](CC(=O)N1CCn2c(nnc2C(F)(F)F)C1)Cc1cc(F)c(F)cc1F [Sitagliptin] | decrease | – | – | – | – | – | – | – | – | – | – | – | – | – |
| COc1ccc2[nH]cc(CCNC(C)=O)c2c1 [melatonin, N-acetyl-5-methoxyindole-3-ethaneamine] | – | lower | much higher | not appreciably different | significantly decreased | without affecting | limited protection | does not inhibit | antagonized | antagonized | marked increase | marked increase | marked increase | stimulates |
